Test results: ChEMBL document CHEMBL5724558, “Image-based profiling of drug vulnerabilities in CRC organoids” (2024)
Several values for one entry are separate records, joined by “and”; a condition that tells them apart may be missing. Identical values can stand only once.

Key:
Format in all cases: functional, Homo sapiens
Set-up in all cases: dose or concentration left out as unconfirmed
Colon cancer organoid [1] = test: (§1) Image-based profiling of donated chemical probes and chemogenomic kinase set in O06 CRC organoid. Image analysis is performed on the sum area metric, and the data were normalized to the DMSO control. After imaging the organoid viability is measured using the OneGloEX Luciferase Assay System. The normalized viability data and sum area are reported.
Colon cancer organoid [2] = test: as §1, with “O09” for “O06”
Colon cancer organoid [3] = test: as §1, with “O21” for “O06”

Compound	Cell Viability (Colon cancer organoid [1]; Replication number 1)	Cell Viability (Colon cancer organoid [1]; Replication number 2)	Cell Viability (Colon cancer organoid [2]; Replication number 1)	Cell Viability (Colon cancer organoid [2]; Replication number 2)	Cell Viability (Colon cancer organoid [3]; Replication number 1)	Cell Viability (Colon cancer organoid [3]; Replication number 2)
Cc1nccc(COC(=O)N2C[C@@H]3[C@@H](CNC(=O)c4ccc5[nH]nnc5c4)[C@@H]3C2)n1 [BI 3017]	85.9577% and 77.5176%	101.815% and 101.392%	118.304% and 89.116%	133.367% and 124.133%	96.5552% and 87.3221%	97.9165% and 92.8571%
Cn1nc(C(=O)NCc2ccc(C(=O)O)cc2)cc1-c1ccc2[nH]ccc2c1 [BI 4395]	93.2096% and 84.0749%	51.0154% and 42.4045%	118.116% and 98.6727%	113.973% and 124.717%	90.5249% and 84.9935%	78.9736% and 83.6735%
Cn1c(C2(NC(=O)c3ccc(NCC4CCCCC4)nc3)CCC2)nc2ccc(/C=C/C(=O)O)cc21 [BI 7656]	99.3838% and 109.64%	121.504% and 124.591%	151.482% and 117.548%	136.087% and 97.2553%	95.8092% and 94.6419%	106.526% and 92.3751%
C[C@@]1(Cc2ccc(C#N)cc2)C(=O)N(c2cc(Cl)cc(Cl)c2)c2ncc(C(=O)NC3(c4nc(C5CCC5)no4)CC3)n21 [BI 9446]	120.452% and 119.438%	141.276% and 120.817%	73.271% and 85.2933%	87.2778% and 108.945%	115.902% and 114.683%	106.853% and 94.898%
CC(=O)N1CCC(c2ccc(C(=O)NC(=N)N)cc2C(F)(F)F)CC1 [BI 9627]	92.5077% and 96.2529%	95.2505% and 62.3038%	138.648% and 103.929%	116.481% and 107.777%	89.2518% and 118.176%	98.5958% and 100.51%
CCC(=O)N[C@H]1CC[C@@H](C(=O)N(C)c2ccc(-c3nc4ccccc4o3)cc2)C1 [BI 99179]	21.7258% and 60.1874%	30.1767% and 66.0942%	70.0522% and 46.8277%	52.7511% and 35.3414%	140.434% and 105.951%	114.409% and 97.9592%
CCC(=O)N[C@@H]1CC[C@H](C(=O)N(C)c2ccc(-c3nc4ccccc4o3)cc2)C1 [BI 99990]	114.692% and 101.874%	112.935% and 105.893%	148.115% and 99.6283%	106.898% and 85.8708%	98.1271% and 82.0828%	97.1544% and 80.6122%
CCS(=O)(=O)c1cc2cc(C[C@](O)(CC(C)(C)c3ccc(F)cc3C(N)=O)C(F)(F)F)[nH]c2cn1 [BI 653048]	90.5623% and 97.4239%	82.9692% and 113.237%	139.667% and 102.973%	122.797% and 92.0044%	95.8907% and 94.89%	87.1647% and 83.1633%
CC[C@H](CC(=O)O)n1c(=O)c2ncccc2n(Cc2cn(C)c3cc(C)cc(C)c23)c1=O [BI-1942]	122.43% and 127.53%	114.507% and 111.004%	76.1388% and 88.7208%	109.791% and 100.317%	98.903% and 90.5784%	95.5994% and 107.07%
CN(C)C(=O)c1sc2nc(N3CCC(S(C)(=O)=O)CC3)cc(C(F)(F)F)c2c1N [BI-5026]	118.242% and 106.64%	81.5646% and 70.3988%	136.068% and 99.7874%	102.802% and 111.221%	97.3% and 81.8479%	110.845% and 100.952%
CCC(F)(F)c1cc(N2CCC(S(C)(=O)=O)CC2)nc2sc(C(N)=O)c(N)c12 [BI-605906]	130.001% and 116.599%	81.7833% and 117.011%	110.631% and 99.0371%	105.468% and 104.877%	102.215% and 104.22%	98.7028% and 111.659%
CCOc1ccn(-c2ccc(F)cc2)c(=O)c1C(=O)Nc1ccc(Oc2ccnc(N)c2Cl)c(F)c1 [BMS-777607]	96.7201% and 108.61%	116.766% and 115.578%	102.993% and 102.228%	97.5395% and 82.0651%	134.256% and 110.941%	106.617% and 115.725%
O=c1nc(-c2ccccn2)sc2ccccc12 [BTZO-1]	100.751% and 107.26%	110.744% and 103.05%	107.798% and 116.353%	106.736% and 92.2965%	137.995% and 94.89%	98.0739% and 81.1225%
O=C1NC(c2ccccn2)Sc2ccccc21 (stereo not given) [BTZO-4]	80.1051% and 90.1639%	101.963% and 109.92%	89.6903% and 76.6923%	179.626% and 125.593%	96.9189% and 94.3079%	102.382% and 84.6939%
C=CC(=O)Nc1ccc2[nH]c(=O)n(C3CCN(Cc4ccc(-c5nc6cc[nH]c(=O)c6cc5-c5ccccc5)cc4)CC3)c2c1 [Borussertib]	53.8202% and 93.0364%	55.5643% and 106.199%	27.7912% and 48.9559%	42.376% and 51.9429%	72.0097% and 96.5806%	66.1245% and 78.518%
O=C(NOCC1CC1)c1ccc(F)c(F)c1Nc1ccc(I)cc1Cl [CI-1040]	3.322% and 9.147%	3.495% and 11.5373%	15.162% and 31.6659%	27.5568% and 31.5843%	35.0082% and 32.446%	40.3855% and 37.5387%
O=C(c1ccc(F)c(F)c1Nc1ccc(I)cc1F)N1CC(O)([C@@H]2CCCCN2)C1 [COBIMETINIB]	2.921% and 4.652%	3.136% and 6.437%	5.994% and 14.4616%	–	18.944% and 20.5157%	17.3316% and 26.4843%
COCC(=O)NC/C=C/c1ccc2ncnc(Nc3ccc(Oc4ccc(C)nc4)c(C)c3)c2c1 [CP-724714]	34.9461% and 62.9851%	41.6567% and 67.0437%	68.0715% and 78.0427%	150.035% and 112.57%	88.8144% and 89.7561%	117.053% and 106.513%
CN([C@@H]1CCc2c(CC(=O)O)c3cc(S(C)(=O)=O)ccc3n2C1)S(=O)(=O)c1ccc(F)cc1 [CRTH2-negative-control]	102.982% and 101.171%	44.9133% and 103.761%	103.344% and 126.626%	95.2483% and 103.103%	114.066% and 111.772%	101.538% and 90.3061%
CNC(=O)c1ccc(Nc2ncc(C(F)(F)F)c(NCc3nccnc3N(C)S(C)(=O)=O)n2)cc1 [DEFACTINIB]	124.45% and 120.141%	102.609% and 90.0207%	29.7376% and 36.5543%	24.312% and 22.1979%	89.1869% and 86.74%	98.5669% and 117.347%
Cn1c(C2(NC(=O)c3ccc4c(C5CCCC5)c(-c5ncc(Br)cn5)n(C)c4c3)CCC2)nc2ccc(/C=C/C(=O)O)cc21 [DELEOBUVIR]	72.8568% and 101.611%	116.691% and 122.099%	177.935% and 120.27%	86.2792% and 92.0585%	112.195% and 113.344%	113.774% and 112.777%
Cn1cc(C2=C(c3cn(C4CCN(Cc5ccccn5)CC4)c4ccccc34)C(=O)NC2=O)c2ccccc21 [ENZASTAURIN]	30.0951% and 84.3511%	45.1765% and 67.455%	88.965% and 63.5811%	82.186% and 57.4996%	107.446% and 117.631%	96.9547% and 121.483%
C[C@H](NC(=O)Nc1cc2[nH]ncc2c(CO)n1)c1ccccn1 [ERKi-NC]	123.043% and 110.304%	54.2126% and 97.1276%	84.2492% and 86.249%	90.2054% and 105.732%	112.403% and 96.6365%	96.9008% and 86.2245%
C[C@@H](NC(=O)Nc1cc2[nH]ncc2c(CO)n1)c1ccccc1 [ERKi]	27.1255% and 47.7752%	41.1023% and 64.199%	38.3769% and 59.9681%	20.7917% and 30.6681%	47.444% and 52.6843%	54.1158% and 53.5714%
O=C(Nc1nc2cccc(-c3ccc(CN4CCS(=O)(=O)CC4)cc3)n2n1)C1CC1 [FILGOTINIB]	93.5364% and 106.162%	112.473% and 105.09%	112.727% and 81.0348%	92.6922% and 97.9922%	108.054% and 94.216%	115.207% and 111.119%
CN(C(=O)c1ccccc1)c1cc(N(C)c2ccc3c(c2)CCc2ccc(C(=O)NCCN4CCOCC4)cc2C3=O)ccc1F [FM-743]	90.1876% and 101.781%	105.862% and 118.933%	89.1217% and 99.5999%	73.0037% and 91.594%	111.27% and 106.402%	83.0534% and 97.3827%
